Some test systems named below: CAKI-1; CCRF-CEM; COLO 205; HCT-15; HOP-62; K562; MOLT-4; Malme-3M; NCI-H226; NCI-H23; NCI-H460; OVCAR-5; OVCAR-8; RPMI-8226; SF-268; SK-MEL-28; SNB-19; TK-10; UACC-257; HCT-116.
Common to all, as to experiment: growth of human tumour cells (NCI), 48 h

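Method: 48-hour compound exposure of cells in 96-well plates, five concentrations, linear interpolation of endpoints. The concentration for 50% growth inhibition is given as GI50.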 Active and inactive are the calls of the source. No stated cut-off is given here; in the data, active = GI50 up to about 1.1 µM and inactive = higher.

The text below walks through data of ChEMBL document CHEMBL1201862, “PubChem BioAssay data set” (2004).

As for `CCCS(=O)(=O)O`, the GI50 in the assay on CAKI-1 was > 100 µM (inactive); with CCRF-CEM, > 100 µM (inactive); in the assay with COLO 205 it was > 100 µM (inactive); in the assay on HCT-15, more than 100 µM; in the assay on HOP-62, > 100 µM (inactive); in the assay with K562, > 100 µM (inactive). In addition, the GI50 with MOLT-4, with Malme-3M, with NCI-H226, with NCI-H23, in the assay with NCI-H460 and in the assay on OVCAR-5 was > 100 µM (inactive) throughout. Moreover, the GI50 with OVCAR-8, in the assay with RPMI-8226, with SF-268, in the assay with SK-MEL-28, in the assay with SNB-19 and in the assay with TK-10 was > 100 µM (inactive) throughout. In addition, in the assay with UACC-257, the GI50 is > 100 µM (inactive).

Turning to `CCN(CC)C(=O)c1cc(OC(C)C)ccc1-c1c(C)cc(OC(C)C)c(OC)c1OC`, the GI50 with CAKI-1 was 84.5 µM (inactive); in the assay with CCRF-CEM it was 34 µM (inactive); in the assay with COLO 205 it was 63.7 µM (inactive); in the assay on HCT-116, 38.2 µM (inactive); in the assay on HCT-15, 46.9 µM; in the assay on HOP-62, > 100 µM (inactive). Also, the GI50 in the assay on K562 was 44.2 µM (inactive); in the assay on MOLT-4, 25.5 µM (inactive); in the assay on Malme-3M, 44 µM (inactive); with NCI-H226, 98.2 µM (inactive); with NCI-H23, 60 µM (inactive); in the assay with NCI-H460 it was 36.1 µM (inactive). For the same compound, the GI50 is > 100 µM (inactive) with OVCAR-5; 58.5 µM (inactive) with OVCAR-8; 24.2 µM (inactive) in the assay with RPMI-8226; > 100 µM (inactive) in the assay on SF-268; > 100 µM (inactive) in the assay on SK-MEL-28; 79.1 µM (inactive) in the assay on SNB-19. The GI50 with TK-10 is > 100 µM (inactive).

Consider `CC(=O)N/C(=C\c1ccc(Cc2nc3c([nH]2)C(=O)c2ccccc2C3=O)cc1)c1nc2c([nH]1)C(=O)c1ccccc1C2=O`, for which the GI50 in the assay on CAKI-1, in the assay with CCRF-CEM, with COLO 205, with HCT-116, in the assay with HOP-62 and in the assay on K562 was > 100 µM (inactive) in each case. Moreover, the GI50 with MOLT-4, in the assay on Malme-3M, in the assay with NCI-H226, with NCI-H23, in the assay on NCI-H460 and with OVCAR-5 was > 100 µM (inactive) in each case. Further, the GI50 in the assay with OVCAR-8 is 43.5 µM (inactive); in the assay with RPMI-8226 it was > 100 µM (inactive); in the assay with SF-268, > 100 µM (inactive); in the assay with SK-MEL-28, > 100 µM (inactive); with SNB-19, > 100 µM (inactive); in the assay on TK-10, 78.9 µM (inactive). In the assay with UACC-257, the GI50 was > 100 µM (inactive).

Consider `CC1(C)N=C(Oc2ccccc2)n2nccc2N1`, for which the GI50 with CAKI-1 is > 100 µM (inactive); in the assay on CCRF-CEM it was > 100 µM (inactive); in the assay with COLO 205, 87.1 µM (inactive); in the assay on HCT-116, 51.9 µM (inactive); in the assay with HCT-15, more than 100 µM; in the assay with HOP-62 it was > 100 µM (inactive). Moreover, the GI50 in the assay on K562 is 82.8 µM (inactive); in the assay on MOLT-4, > 100 µM (inactive); with Malme-3M it was > 100 µM (inactive); in the assay on NCI-H226 it was > 100 µM (inactive); in the assay with NCI-H23, > 100 µM (inactive); with NCI-H460, 75 µM (inactive). For the same compound, the GI50 with OVCAR-5, with RPMI-8226, with SF-268, with SK-MEL-28, with SNB-19 and in the assay with TK-10 was > 100 µM (inactive) throughout. The GI50 in the assay on UACC-257 is > 100 µM (inactive).

As to `COC1OC(CS(=O)(=O)O)C(O)C(O)C1O` (centres undefined), the GI50 with CAKI-1 was > 100 µM (inactive); with CCRF-CEM, > 100 µM (inactive); in the assay with COLO 205 it was > 100 µM (inactive); with HCT-116, > 100 µM (inactive); in the assay with HCT-15 it was more than 100 µM; with HOP-62 it was > 100 µM (inactive). The GI50 in the assay with K562, in the assay on MOLT-4, with Malme-3M, in the assay with NCI-H226, with NCI-H23 and with NCI-H460 was > 100 µM (inactive) throughout. Also, the GI50 with OVCAR-5, in the assay with OVCAR-8, with RPMI-8226, in the assay with SK-MEL-28, in the assay with SNB-19 and in the assay on TK-10 was > 100 µM (inactive) each time. For the same compound, the GI50 in the assay on UACC-257 was > 100 µM (inactive).

On to `CC(=O)[C@H]1CCC2[C@@H]3CC=C4C(O)C(OS(=O)(=O)O)CC[C@]4(C)C3CC[C@@]21C` (some centres undefined), for which the GI50 in the assay with CAKI-1 is > 100 µM (inactive); with CCRF-CEM it was > 100 µM (inactive); in the assay on COLO 205, > 100 µM (inactive); in the assay with HCT-116, > 100 µM (inactive); in the assay with HCT-15 it was more than 100 µM; in the assay on HOP-62 it was > 100 µM (inactive). The GI50 in the assay with K562, in the assay on MOLT-4, in the assay with Malme-3M, with NCI-H226, with NCI-H23 and in the assay with NCI-H460 was > 100 µM (inactive) throughout. The GI50 with OVCAR-5, with OVCAR-8, in the assay on RPMI-8226, in the assay on SF-268, with SK-MEL-28 and with SNB-19 was > 100 µM (inactive) in each case.

For `O=C1CC(CC(OCc2ccccc2)C(COCc2ccccc2)OCc2ccccc2)CC(=O)N1` (centres undefined), the GI50 in the assay on CAKI-1 is 19.7 µM (inactive); in the assay on CCRF-CEM it was 37.1 µM (inactive); with COLO 205, 19.2 µM (inactive); with HCT-116, 23.6 µM (inactive); in the assay on HCT-15, 31.9 µM; in the assay on HOP-62, 39.8 µM (inactive). Besides, the GI50 with K562 was 33.7 µM (inactive); in the assay with MOLT-4, 24.3 µM (inactive); with Malme-3M, 19.9 µM (inactive); in the assay on NCI-H226, 44.1 µM (inactive); in the assay on NCI-H23, 43.1 µM (inactive); with NCI-H460, 32.4 µM (inactive). Further, the GI50 in the assay with OVCAR-5 is 44.2 µM (inactive); in the assay with OVCAR-8, 31.9 µM (inactive); in the assay with RPMI-8226, 34.5 µM (inactive); in the assay on SF-268, 58.1 µM (inactive); in the assay on SK-MEL-28, 63.4 µM (inactive); in the assay on UACC-257 it was 27.4 µM (inactive).

For `CC1[C@@H]2CC=C3C4CCC5Cc6nc7c(nc6C[C@@]5(C)C4CC(=O)[C@]32CO[C@@]1(O)C(O)CC(C)(C)O)CC1CCC2C3=C[C@H]4O[C@@]5(O[C@@](C)(CO)C[C@@H]5O)C(C)[C@@]4(O)[C@]3(C)[C@@H](O)CC2[C@]1(C)C7` (some centres undefined), the GI50 was 0.0132 µM (active) with CAKI-1; 0.000753 µM (active) in the assay on CCRF-CEM; 0.015 µM (active) with COLO 205; 0.023 µM (active) in the assay with HCT-116; 0.015 µM with HCT-15; 0.000495 µM (active) with HOP-62. Besides, the GI50 with K562 is 0.0112 µM (active); with MOLT-4, 0.00157 µM (active); with Malme-3M it was 0.0166 µM (active); in the assay with NCI-H226 it was 0.00622 µM (active); in the assay on NCI-H23 it was 0.00308 µM (active); in the assay on NCI-H460, 0.00151 µM (active). Moreover, the GI50 in the assay with OVCAR-5 is 0.00773 µM (active); in the assay with OVCAR-8, 0.127 µM (active); in the assay on RPMI-8226 it was < 0.00036 µM (active); in the assay on SF-268, 0.00676 µM (active); in the assay on SNB-19, 0.0366 µM (active); in the assay on UACC-257, 0.0491 µM (active).
